Laboratory results: ChEMBL document CHEMBL1201862, “PubChem BioAssay data set” (2004)
The source made the active and inactive calls.

Columns and labels:
[1] = A cytotoxicity screen of small molecule inhibitors of the PhoP region in Salmonella typhi identified in the primary screen. [Related pubchem assays: 1850, 1864, 1985 ]; assay type: functional
[2] = target: DNA damage-inducible transcript 3 protein (Mus musculus, UniProt P35639); assay type: functional, Cricetulus griseus
cells = assay type: functional, cell-based
BJ [3] = assay: cytotoxicity toward BJ-TERT-LT-ST fibroblasts, dose response, cell-based, RAS-independent, luminescence (AID 1935); assay type: functional; settings: Homo sapiens;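 further: BJ fibroblasts immortalized with TERT plus LT and ST oncogenes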
BJ [4] = assay: cytotoxicity toward Ras-transformed BJeLR fibroblasts, dose response, cell-based, alamar blue fluorescence, cherrypicked samples (AID 2631); assay type: functional; settings: Homo sapiens;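 further: confirmatory dose-response assay in RAS-dependent BJ fibroblasts engineered with TERT, LT and ST, with cytotoxicity read by fluorescence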
[5] = Vero cell cytotoxicity, dose response, cytotoxicity control for Vif-APOBEC3G degradation inhibitor project, Vero cells (AID 1117358); assay type: functional; settings: Human immunodeficiency virus 1, Vero
[6] = AlphaScreen signal interference compounds, dose response, artefact control for ARNT-TACC3 interaction inhibitor project, biochemical, luminescence, cherry-pick (AID 651705); assay type: functional;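 further: AlphaScreen bead proximity signal that flags compounds interfering with the detection technology; potency reflects signal decrease which marks the compound as an assay artifact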
[7] = target: T1, Rac GTPase-activating protein 1 (Homo sapiens, UniProt Q9H0H5); assay: MgcRacGAP GTPase-activating activity inhibitors, confirmation, biochemical, ADP Hunter fluorescence, primary and confirmatory (AID 624330); assay type: functional
T1 sequence (Q9H0H5 whole entry): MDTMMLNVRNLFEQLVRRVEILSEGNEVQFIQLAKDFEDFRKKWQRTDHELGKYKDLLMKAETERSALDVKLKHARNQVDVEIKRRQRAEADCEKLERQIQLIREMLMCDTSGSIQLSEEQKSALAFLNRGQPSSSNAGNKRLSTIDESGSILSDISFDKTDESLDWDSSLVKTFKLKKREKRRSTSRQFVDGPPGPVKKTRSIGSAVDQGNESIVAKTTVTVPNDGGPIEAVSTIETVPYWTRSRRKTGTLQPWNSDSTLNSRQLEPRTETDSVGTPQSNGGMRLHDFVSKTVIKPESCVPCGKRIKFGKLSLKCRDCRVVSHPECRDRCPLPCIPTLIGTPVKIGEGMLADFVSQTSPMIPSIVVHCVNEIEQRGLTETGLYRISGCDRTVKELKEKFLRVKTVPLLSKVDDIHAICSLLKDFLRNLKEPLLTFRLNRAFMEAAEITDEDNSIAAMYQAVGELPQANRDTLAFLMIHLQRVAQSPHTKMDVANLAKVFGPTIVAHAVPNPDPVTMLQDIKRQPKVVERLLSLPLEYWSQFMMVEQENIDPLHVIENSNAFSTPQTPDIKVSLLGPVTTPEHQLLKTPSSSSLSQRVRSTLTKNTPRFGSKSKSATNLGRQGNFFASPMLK

[8] = target: T2, Sentrin-specific protease 8 (Homo sapiens, UniProt Q96LD8); assay type: functional;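 further: kinetic enzyme assay of SENP8 cleaving a Nedd8 protein substrate, dose-response confirmation of screening hits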
T2 sequence (Q96LD8 whole entry): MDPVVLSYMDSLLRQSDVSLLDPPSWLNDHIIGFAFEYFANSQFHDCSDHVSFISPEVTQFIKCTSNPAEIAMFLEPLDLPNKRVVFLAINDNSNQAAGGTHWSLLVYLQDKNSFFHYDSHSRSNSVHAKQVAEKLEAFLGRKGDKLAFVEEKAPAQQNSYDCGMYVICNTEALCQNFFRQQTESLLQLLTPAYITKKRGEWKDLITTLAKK

Caspase-3 = target: T3, Caspase-3 (Homo sapiens, UniProt P42574); assay: Dose-response confirmation of uHTS inhibitor hits of Sentrin-Specific Protease 8 in a Caspase-3 Fluorescence assay.; assay type: functional
T3 sequence (P42574 whole entry): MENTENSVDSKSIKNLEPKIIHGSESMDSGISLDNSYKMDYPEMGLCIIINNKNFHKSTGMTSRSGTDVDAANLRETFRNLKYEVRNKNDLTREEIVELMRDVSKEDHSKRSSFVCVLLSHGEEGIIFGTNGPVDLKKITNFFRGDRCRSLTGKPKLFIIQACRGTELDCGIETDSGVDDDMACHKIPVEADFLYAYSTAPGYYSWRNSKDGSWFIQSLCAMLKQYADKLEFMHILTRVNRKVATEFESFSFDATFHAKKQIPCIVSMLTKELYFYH

Aminopeptidase N = target: T4, Aminopeptidase N (Plasmodium falciparum FcB1/Columbia, UniProt O96935); assay: P. falciparum M1AAP inhibitors, biochemical, fluorogenic H-Leu-NHMec substrate, 1536-well (AID 1445); design: species or system Plasmodium falciparum 3D7, 3D7
T4 sequence (O96935 whole entry): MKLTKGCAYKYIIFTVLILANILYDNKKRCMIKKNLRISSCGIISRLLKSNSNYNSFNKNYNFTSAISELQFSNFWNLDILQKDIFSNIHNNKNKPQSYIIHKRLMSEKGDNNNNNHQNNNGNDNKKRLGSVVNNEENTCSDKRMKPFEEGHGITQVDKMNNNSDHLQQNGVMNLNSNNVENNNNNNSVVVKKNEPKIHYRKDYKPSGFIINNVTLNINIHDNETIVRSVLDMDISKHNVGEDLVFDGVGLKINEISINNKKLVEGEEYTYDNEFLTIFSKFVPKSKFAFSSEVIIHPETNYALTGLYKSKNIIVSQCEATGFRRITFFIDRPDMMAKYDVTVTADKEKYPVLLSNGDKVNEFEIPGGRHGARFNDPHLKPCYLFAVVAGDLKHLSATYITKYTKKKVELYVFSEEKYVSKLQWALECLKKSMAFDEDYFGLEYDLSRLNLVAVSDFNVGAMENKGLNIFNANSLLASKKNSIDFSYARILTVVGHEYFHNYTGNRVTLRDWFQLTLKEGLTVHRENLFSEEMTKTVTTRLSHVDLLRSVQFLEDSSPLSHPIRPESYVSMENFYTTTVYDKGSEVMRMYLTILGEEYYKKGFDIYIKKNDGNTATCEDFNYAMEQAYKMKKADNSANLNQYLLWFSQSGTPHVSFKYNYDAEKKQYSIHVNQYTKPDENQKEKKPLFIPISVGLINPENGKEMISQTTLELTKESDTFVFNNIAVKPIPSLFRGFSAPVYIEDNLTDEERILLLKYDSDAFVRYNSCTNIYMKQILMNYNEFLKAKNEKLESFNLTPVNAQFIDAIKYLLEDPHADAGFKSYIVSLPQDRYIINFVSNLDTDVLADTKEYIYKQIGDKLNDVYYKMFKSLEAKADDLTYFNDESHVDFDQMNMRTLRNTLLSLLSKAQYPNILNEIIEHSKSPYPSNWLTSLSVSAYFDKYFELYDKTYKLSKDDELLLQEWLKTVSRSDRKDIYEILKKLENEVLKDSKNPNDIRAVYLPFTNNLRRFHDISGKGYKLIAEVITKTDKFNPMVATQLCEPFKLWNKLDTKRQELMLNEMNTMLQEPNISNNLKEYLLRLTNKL

[9] = target: Transitional endoplasmic reticulum ATPase (Homo sapiens, UniProt P55072, C522A); assay: C522A mutant p97 ATPase inhibitors, dose response, counter-screen for p97 inhibitor project, biochemical, luminescence (AID 1544)
Chain of Transitional endoplasmic reticulum ATPase (P55072 2-806 C522A limits assumed): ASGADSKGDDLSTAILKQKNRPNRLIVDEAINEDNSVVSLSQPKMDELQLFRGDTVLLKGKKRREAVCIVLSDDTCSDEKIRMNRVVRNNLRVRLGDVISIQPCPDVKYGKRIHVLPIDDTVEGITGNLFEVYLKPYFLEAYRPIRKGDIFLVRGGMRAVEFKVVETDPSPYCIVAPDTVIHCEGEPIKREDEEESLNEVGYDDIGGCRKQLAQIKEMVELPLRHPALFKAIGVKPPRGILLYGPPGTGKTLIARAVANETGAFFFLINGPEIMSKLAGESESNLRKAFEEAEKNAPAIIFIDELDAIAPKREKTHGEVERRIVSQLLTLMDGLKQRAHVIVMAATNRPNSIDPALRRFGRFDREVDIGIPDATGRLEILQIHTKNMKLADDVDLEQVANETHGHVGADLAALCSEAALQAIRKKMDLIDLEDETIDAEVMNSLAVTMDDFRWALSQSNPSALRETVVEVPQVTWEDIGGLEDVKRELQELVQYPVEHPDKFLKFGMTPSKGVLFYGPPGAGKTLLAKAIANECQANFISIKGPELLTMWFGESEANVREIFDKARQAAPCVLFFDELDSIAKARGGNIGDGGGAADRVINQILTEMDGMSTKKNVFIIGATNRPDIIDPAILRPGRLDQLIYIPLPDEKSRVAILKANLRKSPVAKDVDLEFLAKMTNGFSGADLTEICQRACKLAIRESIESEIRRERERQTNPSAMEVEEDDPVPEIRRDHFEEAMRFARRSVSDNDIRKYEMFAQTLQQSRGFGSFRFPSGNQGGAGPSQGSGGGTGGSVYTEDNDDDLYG

[10] = target: Glutathione-S-transferase (Schistosoma japonicum, UniProt Q26513); assay: biotin-GST/anti-GST TR-FRET signal inhibitors, dose response, artefact control for Vif-APOBEC3G degradation inhibitor project, biochemical (AID 1117362); assay type: functional
Chain of Glutathione-S-transferase (Q26513 whole entry): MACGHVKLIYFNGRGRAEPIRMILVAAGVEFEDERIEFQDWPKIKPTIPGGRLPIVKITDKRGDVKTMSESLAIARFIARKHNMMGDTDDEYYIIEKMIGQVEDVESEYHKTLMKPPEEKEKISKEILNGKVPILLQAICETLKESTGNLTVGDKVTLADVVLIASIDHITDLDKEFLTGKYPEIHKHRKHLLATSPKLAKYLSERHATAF

Chain of DNA damage-inducible transcript 3 protein (P35639 whole entry): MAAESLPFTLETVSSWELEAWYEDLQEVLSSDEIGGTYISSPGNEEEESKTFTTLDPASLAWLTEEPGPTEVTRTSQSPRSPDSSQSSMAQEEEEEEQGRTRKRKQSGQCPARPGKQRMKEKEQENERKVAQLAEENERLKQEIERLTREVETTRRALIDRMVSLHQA

CCc1nnc(NS(=O)(=O)c2ccc(NC(=S)NC(=O)/C=C/c3ccc(C(C)C)cc3)cc2)s1
EC50 [1]: > 50 µM (active) | Absolute IC50 (CHOP) [2]: 10 µM

O=C(/C=C/c1ccco1)Nc1ccc(Oc2ccccc2)cc1
EC50 (cells): > 350 µM (not active) | EC50 (BJ [3]): > 150 µM (inconclusive) | EC50 (BJ [4]): 14.6 µM (active) | CC50 [5]: > 40 µM (active)

COc1ccc(S(=O)(=O)Nc2cc(SCC(=O)O)c(O)c3ccccc23)cc1
AC50 [6]: 104 µM (active)

O=C1C(Nc2ccc(O)cc2)=C/C(=N/S(=O)(=O)c2cccs2)c2ccccc21
IC50 [7]: 41.8 µM (active)

COC(=O)C(O)(c1c(C)[nH]n(-c2ccccc2)c1=O)C(F)(F)F (stereo not drawn)
IC50 [8]: 1.15 µM (active) | IC50 (Caspase-3): 68.9 µM (inactive)

CC1CC(=O)c2c(cc3c(-c4c(O)cc(O)c5c(O)c6c(cc45)OC(C)CC6=O)c(O)cc(O)c3c2O)O1 (stereo not drawn) [CEPHALOCHROMIN]
IC50 (Aminopeptidase N): 64.9 µM (active) | IC50 [9]: > 50 µM (not active) | IC50 [10]: > 100 µM (active)
